The target of assay [1] is Human ATX (Homo sapiens (Human), UniProt Q13822). The assay is described as follows: Assay A: Biochemical ATX Assay. The conditions noted are these: 5 nM recombinant ATX, 18:1 LPC substrate, 2-h incubation at room temperature, formation of 18:1 LPA.
Experimental: 5 nM recombinant ATX (Cayman Chemicals) was supplemented to 50 mM Tris buffer (pH 8.0) containing 3 mM KCl, 1 mM CaCl2, 1 mM MgCl2 0.14 mM NaCl, and 0.1% bovine serum albumin. Test compounds were dissolved in DMSO and tested in the range of 0.1 nM to 10 μM. The enzymatic reaction (22.5 μL) was started by addition of 2.5 μL 10 μM 18:1 LPC (Avanti Lipids, Alabaster, Ala., USA). After 2-h incubation at room temperature, the reaction was stopped by addition of 20 μL water containing 500 nM 20:4 LPA as internal standard and 100 μL 1-butanol for extracting LPA. Subsequently, the plates were centrifuged at 4000 rpm, 4° C., for 2 min. The resultant upper butanol phase was directly used for injection at a RapidFire system (Agilent).
The RapidFire autosampler was coupled to a binary pump (Agilent 1290) and a Triple Quad 6500 (ABSciex, Toronto, Canada). This system was equipped with a 10-μL loop, 5-μL Waters Atlantis HILIC cartridge (Waters, Elstree, UK), 90% acetonitrile containing 10 mM ammonium acetate as eluent A and 40% acetonitrile containing 10 mM ammoniumacetate as eluent B. For details see (Bretschneider et al., SLAS Discovery, 2017). 1 The MS was operated in negative mode with a source temperature of 550° C., curtain gas=35, gas 1=65, and gas 2=80. The following transitions and MS parameters (DP: declustering potential and CE: collision energy) for the respective LPAs were determined: 18:1 LPA at 435.2/152.8, DP=−40, CE=−28 and 20:4 LPA at 457.2/152.8, DP=−100, CE=−27).
The formation of 18:1 LPA was monitored and evaluated as ratio to 20:4 LPA.
Assay [2] addresses ATX in human whole blood (Homo sapiens (Human), UniProt Q13822). The assay is described as follows: Assay B: Whole-Blood ATX Assay. The conditions noted are these: 1 h at 37° C., formation of 18:2 LPA. The format is biochemical.
Experimental: 45 μL human whole-blood was supplemented with 5 μL of the test compound, dissolved in phosphate-buffered saline (concentration range 0.12 nM-100 μM). This mixture was incubated for 1 h at 37° C. and stopped by addition of 100 μL 40 mM disodium hydrogen phosphate buffer containing 30 mM citric acid (pH 4) and 1 μM 17:0 LPA (internal standard). LPA was extracted by addition of 500 μL 1-butanol, followed by 10-min centrifugation at 4000 rpm, 4° C. Prom the resultant organic supernatant, a 200 μL aliquot was transferred into a 96-deep-well plate and transferred to the RapidPire-based MS/MS measurement.
The RapidPire autosampler was coupled to a binary pump (Agilent 1290) and a Triple Quad 6500 (ABSciex, Toronto, Canada). This system was equipped with a 10-μL loop, 5-μL Waters Atlantis HILIC cartridge (Waters, Elstree, UK), 90% acetonitrile containing 10 mM ammonium acetate as eluent A and 40% acetonitrile containing 10 mM ammoniumacetate as eluent B. For details see (Bretschneider et al., SLAS Discovery, 2017, 22, 425-432). The MS was operated in negative mode with a source temperature of 550° C., curtain gas=35, gas 1=65, and gas 2=80. The following transitions and MS parameters (DP: declustering potential and CE: collision energy) for the respective LPAs were determined: 18:2 LPA at 433.2/152.8, DP=−150, CE=−27 and 17:0 LPA at 423.5/152.8, DP=−100.
The formation of 18:2 LPA was monitored and evaluated as ratio to 17:0 LPA.
In assay [3] the test system is plasma LPA. Description: Assay C: In Vivo (plasma LPA reduction after oral application to rats). The conditions noted are these: 5 mg/kg, plasma 8 hours post application, vs baseline, sum of LPA 16:0, 18:0, 18:1, 18:2, 20:4. Also on record: species or system rat. On the procedure: The test substance was solubilized in 0.5% natrosol supplemented with 0.015% Tween 80 for oral application to rats at a dose of 5 mg/kg. Blood samples were collected before compound administration and 8 hours post application on ice using EDTA as coagulation agent. Subsequently, plasma was prepared by centrifugation and stored until analysis at −20° C.
LPAs from plasma samples were extracted by using the procedure described by Scherer et al. (Clinical chemistry 2009, 55, 1218-22). 35 μL of heparinized plasma was mixed with 200 μL 40 mM disodium hydrogen phosphate buffer containing 30 mM citric acid (pH 4) and 1 μM 17:0 LPA (internal standard). Subsequently, 500 μL butanol was added and shaken vigorously for 10 min. Samples were centrifuged afterwards at 4000 rpm, 4° C., for 10 min. 500 μL of the organic upper phase was transferred to a fresh 96-deep-well plate and evaporated with a gentle nitrogen flow of 15 psi for 45 min. The resultant residual was dissolved in 100 μL ethanol prior to LC-MS analysis.
LC-MS Method for the Analytic of In Vivo Samples
A Triple Quad 6500 (ABSciex, Toronto, Canada) was equipped with an Agilent 1290 LC system (Agilent, Santa Clara, Calif.) a CTC autosampler and an Atlantis 50×2.1-mm, 3-μm HILIC LC column (Waters, Elstree, UK). Eluent A contained 0.2% formic acid and 50 mM ammonium formate in water, whereas eluent B consisted of 0.2% formic acid in acetonitrile. […] At 1.8 min, solvent B was set back to 95% and stayed constant for 0.7 min for re-equilibration of the column. The following LPA species were monitored (DP: declustering potential and CE: collision energy): 16:0 LPA at 409.2/152.8, DP=−150, CE=−28; 18:0 LPA at 437.3/152.8, DP=−60, CE=−28; 18:1 LPA at 435.2/152.8, DP=−40, CE=−28; 18:2 LPA at 433.2/152.8, DP=−150, CE=−28; 20:4 LPA at 457.2/152.8, DP=−100, CE=−29 and 17:0 LPA at 423.5/152.8, DP=−100, CE=−36. LPA depletion in percent was calculated based on the baseline LPA levels before test compound application. The sum of LPA refers to the species 16:0; 18:0; 18:1; 18:2 and 20:4

In general, IC50 refers to the point on the concentration scale where inhibition reaches its midpoint.

Regarding `CC(=O)N1CCC2(CC1)CN(c1ccc(CNC(=O)C3(c4ccc(OCc5ccc(C(F)(F)F)nc5)nn4)CC3)cc1)C2` [Example 1.1, N-(4-(7-acetyl-2,7-diazaspiro[3.5]nonan-2-yl)benzyl)-1-(6-((6-(trifluoromethyl)pyridin-3-yl)methoxy)pyridazin-3-yl)cyclopropane-1-carboxamide], the IC50 in assay [1] was 4 nM; in assay [2], 3.1 nM. For the same molecule, in assay [3], the “LPA reduction at 8 h” value is reported as 93.7%.
The corresponding values for `CN1CC2(CC1=O)CN(c1ccc(CNC(=O)C3(c4ccc(OCc5ccc(C(F)F)nc5)nn4)CC3)cc1)C2` [Example 1.2] are 3.5 nM, 2.4 nM and 90.6%.
Take `CC(=O)N1CCC2(CC1)CN(c1ccc(CNC(=O)C3(c4ccc(OCc5ccc(C(F)F)nc5)nn4)CC3)cc1)C2` [Example 1.3]: the figures for the IC50 in assay [1] and in assay [2] were 3.7 nM and 2.8 nM, respectively. Moreover, the “LPA reduction at 8 h” value in assay [3] is given as 95.0%.
On to `CC(=O)N1CC2(C1)CN(c1ccc(CNC(=O)C3(c4ccc(OCc5ccc(C(F)F)nc5)nn4)CC3)cc1)C2` [Example 1.4], for which the IC50 in assay [1] came to 4 nM; in assay [2], 3.1 nM. For the same molecule, the “LPA reduction at 8 h” value in assay [3] was determined as 98.2%.
Regarding `CC(=O)N1CCN(c2ccc(CNC(=O)C3(c4ccc(OCc5ccc(C(F)(F)F)nc5)nn4)CC3)c(F)c2)CC1` [Example 1.5], the IC50 in assay [1] is 3.8 nM; in assay [2] it was 4.2 nM.
As to `CC(=O)N1CCN(c2ccc(CNC(=O)C3(c4ccc(OCc5ccc(C(F)(F)F)nc5)nn4)CC3)cc2F)CC1` [Example 1.6], the values for the IC50 in assay [1] and in assay [2] were 2.4 nM and 4.7 nM, respectively.
The corresponding values for `CN1CC2(CC1=O)CN(c1ccc(CNC(=O)C3(c4ccc(OCc5ccc(C(F)(F)F)nc5)nn4)CC3)cc1)C2` [Example 1.7] are 8.9 nM and 5.7 nM.
In the case of `CC(=O)N1CC2(CCN(c3ccc(CNC(=O)C4(c5ccc(OCc6ccc(C(F)F)nc6)nn5)CC4)cc3)C2)C1` [Example 1.8], the figures for the IC50 in assay [1] and in assay [2] were 4.1 nM and 7.3 nM, respectively. Also, the “LPA reduction at 8 h” value in assay [3] was 78.2%.
Take `CN1C(=O)NCC12CCN(c1ccc(CNC(=O)C3(c4ccc(OCc5ccc(C(F)F)nc5)nn4)CC3)cc1)CC2` [Example 1.9]: the 50% inhibitory concentration (IC50) is 4.5 nM in assay [1] and 9.4 nM in assay [2].
Turning to `O=C1CCCN1C1CCN(c2ccc(CNC(=O)C3(c4ccc(OCc5ccc(C(F)(F)F)nc5)nn4)CC3)cc2)CC1` [Example 1.10], the IC50 in assay [1] was found to be 2.4 nM; in assay [2] it was 7 nM.
The like results for `CC(=O)N1CCC12CN(c1ccc(CNC(=O)C3(c4ccc(OCc5ccc(C(F)(F)F)nc5)nn4)CC3)cc1)C2` [Example 1.11] were, in that order, 2.6 nM and 10 nM.
On to `CC(=O)N1CCN(c2ccc(CNC(=O)C3(c4ccc(OCc5ccc(C(F)(F)F)nc5)nn4)CC3)cc2)CC1` [Example 1.12], for which the values for the IC50 in assay [1] and in assay [2] were 4.3 nM and 10.2 nM, respectively. For the same molecule, the “LPA reduction at 8 h” value in assay [3] is on record as 83.9%.
`CN1C(=O)NCC12CCN(c1ccc(CNC(=O)C3(c4ccc(OCc5ccc(C(F)(F)F)nc5)nn4)CC3)cc1)CC2` [Example 1.13]: the results for the IC50 in assay [1] and in assay [2] were 2.8 nM and 10.5 nM, respectively.
The corresponding values for `CC(=O)N1CCC2(C1)CN(c1ccc(CNC(=O)C3(c4ccc(OCc5ccc(C(F)(F)F)nc5)nn4)CC3)cc1)C2` [Example 1.14] are 4.9 nM and 11.1 nM.
The corresponding values for `CC(=O)N1CCN(c2ccc(CNC(=O)C3(c4ccc(OCc5ccc(C(F)(F)F)nc5)nn4)CC3)cc2C(F)(F)F)CC1` [Example 1.15] are 2 nM and 11.8 nM.
For the molecule `CC(=O)N1CCN(c2ccc(CNC(=O)C3(c4ccc(OCc5ccc(C(F)F)nc5)nn4)CC3)cc2)CC1` [Example 1.16], the figures for the IC50 in assay [1] and in assay [2] were 3.4 nM and 5.4 nM, respectively. In assay [3], the “LPA reduction at 8 h” value came out at 95.5%.
Turning to `CC(=O)N1CC2(C1)CN(c1ccc(CNC(=O)C3(c4ccc(OCc5ccc(C(F)(F)F)nc5)nn4)CC3)cc1)C2` [Example 1.17], the IC50 in assay [1] came to 2.2 nM; in assay [2], 6.5 nM. Besides, the “LPA reduction at 8 h” value in assay [3] stood at 96.9%.
Turning to `CC(=O)N1CC2CC1CN2c1ccc(CNC(=O)C2(c3ccc(OCc4ccc(C(F)(F)F)nc4)nn3)CC2)cc1` (centres unmarked) [Example 1.18], the IC50 in assay [1] is 3.2 nM; in assay [2], 10.8 nM.
The corresponding values for `CC(=O)N1CCN(c2ccc(CNC(=O)C3(c4ccc(OCc5ccc(C(F)(F)F)nc5)nn4)CC3)cc2)CC1(C)C` [Example 1.19] are 2.2 nM and 8.3 nM.
The corresponding values for `CC(=O)N1CCN(c2ccc(CNC(=O)C3(c4ccc(OCc5ccc(C(F)(F)F)nc5)nn4)CC3)cc2)C(C)(C)C1` [Example 1.20] are 4 nM and 6.7 nM.
As to `CC(=O)N1CC2(C1)CN(c1ccc(CNC(=O)C3(c4ccc(OCc5ccc(C(F)(F)F)nc5)nn4)CC3)cc1F)C2` [Example 1.21], the IC50 came out at 4.4 nM in assay [1] and 2.9 nM in assay [2]. Further, the “LPA reduction at 8 h” value in assay [3] is listed as 93.8%.
On to `CC(=O)N1CCN(c2ccc(CNC(=O)C3(c4ccc(OCc5ccc(C(F)F)nc5)nn4)CC3)c(C(F)(F)F)c2)CC1` [Example 1.22], for which the IC50 in assay [1] and in assay [2] was 2.5 nM in each case.
Consider `CC(=O)N1CCN(c2ccc(CNC(=O)C3(c4ccc(OCc5ccc(C(F)(F)F)nc5)nn4)CC3)c(C(F)(F)F)c2)CC1` [Example 1.23], for which the 50% inhibitory concentration (IC50) in assay [1] amounted to 3.6 nM; in assay [2], 4.9 nM.
With `CC(=O)N1C[C@@H]2CN(c3ccc(CNC(=O)C4(c5ccc(OCc6ccc(C(F)F)nc6)nn5)CC4)cc3)C[C@@H]2C1` [Example 1.24], the IC50 in assay [1] was determined as 3.8 nM; in assay [2], 4.6 nM.
The corresponding values for `CC(=O)N1C[C@@H]2CN(c3ccc(CNC(=O)C4(c5ccc(OCc6ccc(C(F)(F)F)nc6)nn5)CC4)cc3)C[C@@H]2C1` [Example 1.25] are 3.2 nM and 12.4 nM.
The corresponding values for `CC(=O)N1CC2(C1)CN(c1ccc(CNC(=O)C3(c4ccc(OCc5ccc(C(F)F)nc5)nn4)CC3)cc1F)C2` [Example 1.26] are 4.1 nM and 3.9 nM.
In assay [2], `CC(=O)N1CCN(c2ccc(CNC(=O)C3(c4ccc(OCc5ccc(C(F)F)nc5)nn4)CC3)cn2)CC1` [Example 1.27] registered an IC50 of 12.1 nM.
On to `CC(=O)N1CCC2(CC1)CN(c1ccc(CNC(=O)C3(c4ccc(OCc5ccc(C(F)(F)F)nc5)nn4)CC3)nc1)C2` [Example 1.28], for which the IC50 in assay [1] came out at 3.2 nM; in assay [2] it was 6.4 nM.
For `CC(=O)N1CCC2(CC1)CN(c1ccc(CNC(=O)C3(c4ccc(OCc5ccc(C(F)F)nc5)nn4)CC3)nc1)C2` [Example 1.29], the IC50 was 5.2 nM in assay [1] and 5.1 nM in assay [2].
The corresponding values for `CC(=O)N1CCC2(CC1)CN(c1ccc(CNC(=O)C3(c4ccc(OCc5ccc(C(F)(F)F)nc5)nn4)CC3)cn1)C2` [Example 1.30] are 3.4 nM and 15.5 nM.
On to `CC(=O)N1CCC(c2ccc(CNC(=O)C3(c4ccc(OCc5ccc(C(F)(F)F)nc5)nn4)CC3)cc2)CC1` [Example 1.31], for which the IC50 in assay [1] amounted to 3.4 nM; in assay [2], 10.7 nM.
Take `CCc1nc2c(C)cc(N3CCN(CC(=O)N4CC(O)C4)CC3)cn2c1N(C)c1nc(-c2ccc(F)cc2)c(C#N)s1` [Example 2 in WO2014/139882, reference compound]: in assay [3], the “LPA reduction at 8 h” value stood at 58.1%.

The values above are taken from patent publication US11465982B2, “Pyridazines” (Boehringer Ingelheim International GmbH, priority 2019, dated 2022).
